Assay results published in article PMC7686313, “Phase 1 study of mTORC1/2 inhibitor sapanisertib (TAK-228) in advanced solid tumours, with an expansion phase in renal, endometrial or bladder cancer” (British Journal of Cancer, 2020).

Assay: Safety (adverse events, NCI CTCAE v4.0), dose-escalation phase
[1] = dose-escalation QD × 3dQW 6–20 mg
[2] = dose-escalation QD × 5dQW 7–13 mg

Procedure: Patients who received ≥1 dose of sapanisertib were included in the safety population. […] Adverse events (AEs) were assessed using the National Cancer Institute Common Terminology Criteria for Adverse Events, v4.0. Patients were provided with a home blood-glucose meter to monitor their fasting predose blood-glucose measurements to assess hyperglycaemia as an on-target AE and PD marker.

CC(C)n1nc(-c2ccc3oc(N)nc3c2)c2c(N)ncnc21 [Sapanisertib]
On-study deaths within 30 days of last dose (both phases): 7 | Acute kidney injury, treatment-related AE (dose-escalation QD 2–7 mg): 1 (3) n (%) | Anaemia, treatment-related AE (dose-escalation QD 2–7 mg): 3 (10) n (%) | Any AE (dose-escalation QD 2–7 mg): 31 (100) n (%) | Any AE resulting in dose modification/interruption (dose-escalation QD 2–7 mg): 22 (71) n (%) | Any AE resulting in treatment discontinuation (dose-escalation QD 2–7 mg): 11 (35) n (%) | Any SAE (dose-escalation QD 2–7 mg): 13 (42) n (%) | Any grade ≥3 AE (dose-escalation QD 2–7 mg): 19 (61) n (%) | Any treatment-related AE (dose-escalation QD 2–7 mg): 31 (100) n (%) | Any treatment-related SAE (dose-escalation QD 2–7 mg): 4 (13) n (%) | Any treatment-related grade ≥3 AE (dose-escalation QD 2–7 mg): 14 (45) n (%) | Asthenia, treatment-related AE (dose-escalation QD 2–7 mg): 6 (19) n (%) | Asthenia, treatment-related grade ≥3 AE (dose-escalation QD 2–7 mg): 1 (3) n (%) | Blood creatinine increased, treatment-related AE (dose-escalation QD 2–7 mg): 7 (23) n (%) | Decreased appetite, treatment-related AE (dose-escalation QD 2–7 mg): 11 (35) n (%) | Dehydration, treatment-related AE (dose-escalation QD 2–7 mg): 3 (10) n (%) | Dehydration, treatment-related grade ≥3 AE (dose-escalation QD 2–7 mg): 0 (0) n (%) | Diarrhoea, treatment-related AE (dose-escalation QD 2–7 mg): 11 (35) n (%) | Diarrhoea, treatment-related grade ≥3 AE (dose-escalation QD 2–7 mg): 1 (3) n (%) | Dry mouth, treatment-related AE (dose-escalation QD 2–7 mg): 5 (16) n (%) | Dysgeusia, treatment-related AE (dose-escalation QD 2–7 mg): 8 (26) n (%) | Dyspepsia, treatment-related AE (dose-escalation QD 2–7 mg): 1 (3) n (%) | Fatigue, treatment-related AE (dose-escalation QD 2–7 mg): 8 (26) n (%) | Fatigue, treatment-related grade ≥3 AE (dose-escalation QD 2–7 mg): 0 (0) n (%) | Headache, treatment-related AE (dose-escalation QD 2–7 mg): 0 (0) n (%) | Hypercholesterolemia, treatment-related AE (dose-escalation QD 2–7 mg): 5 (16) n (%) | Hyperglycaemia, treatment-related AE (dose-escalation QD 2–7 mg): 25 (81) n (%) | Hyperglycaemia, treatment-related grade ≥3 AE (dose-escalation QD 2–7 mg): 6 (19) n (%) | Hypophosphatemia, treatment-related AE (dose-escalation QD 2–7 mg): 0 (0) n (%) | Hypophosphatemia, treatment-related grade ≥3 AE (dose-escalation QD 2–7 mg): 0 (0) n (%) | Lymphopenia, treatment-related grade ≥3 AE (dose-escalation QD 2–7 mg): 2 (6) n (%) | Nausea, treatment-related AE (dose-escalation QD 2–7 mg): 13 (42) n (%) | Nausea, treatment-related grade ≥3 AE (dose-escalation QD 2–7 mg): 0 (0) n (%) | On-study deaths (dose-escalation QD 2–7 mg): 1 (3) n (%) | Pruritus generalised, treatment-related AE (dose-escalation QD 2–7 mg): 8 (26) n (%) | Pruritus generalised, treatment-related grade ≥3 AE (dose-escalation QD 2–7 mg): 2 (6) n (%) | Pruritus, treatment-related AE (dose-escalation QD 2–7 mg): 2 (6) n (%) | Rash maculo-papular, treatment-related AE (dose-escalation QD 2–7 mg): 3 (10) n (%) | Rash maculo-papular, treatment-related grade ≥3 AE (dose-escalation QD 2–7 mg): 2 (6) n (%) | Rash, treatment-related AE (dose-escalation QD 2–7 mg): 8 (26) n (%) | Rash, treatment-related grade ≥3 AE (dose-escalation QD 2–7 mg): 2 (6) n (%) | Stomatitis (includes oropharyngeal pain and mucosal inflammation), treatment-related AE (dose-escalation QD 2–7 mg): 11 (35) n (%) | Stomatitis, treatment-related grade ≥3 AE (dose-escalation QD 2–7 mg): 0 (0) n (%) | Thrombocytopenia, treatment-related grade ≥3 AE (dose-escalation QD 2–7 mg): 2 (6) n (%) | Vomiting, treatment-related AE (dose-escalation QD 2–7 mg): 8 (26) n (%) | Weight decreased, treatment-related AE (dose-escalation QD 2–7 mg): 1 (3) n (%) | Acute kidney injury, treatment-related AE [1]: 0 (0) n (%) | Anaemia, treatment-related AE [1]: 1 (3) n (%) | Any AE [1]: 33 (100) n (%) | Any AE resulting in dose modification/interruption [1]: 21 (64) n (%) | Any AE resulting in treatment discontinuation [1]: 7 (21) n (%) | Any SAE [1]: 17 (52) n (%) | Any grade ≥3 AE [1]: 25 (76) n (%) | Any treatment-related AE [1]: 32 (97) n (%) | Any treatment-related SAE [1]: 9 (27) n (%) | Any treatment-related grade ≥3 AE [1]: 19 (58) n (%) | Asthenia, treatment-related AE [1]: 10 (30) n (%) | Asthenia, treatment-related grade ≥3 AE [1]: 4 (12) n (%) | Blood creatinine increased, treatment-related AE [1]: 2 (6) n (%) | Decreased appetite, treatment-related AE [1]: 17 (52) n (%) | Dehydration, treatment-related AE [1]: 1 (3) n (%) | Dehydration, treatment-related grade ≥3 AE [1]: 1 (3) n (%) | Diarrhoea, treatment-related AE [1]: 13 (39) n (%) | Diarrhoea, treatment-related grade ≥3 AE [1]: 0 (0) n (%) | Dry mouth, treatment-related AE [1]: 2 (6) n (%) | Dysgeusia, treatment-related AE [1]: 4 (12) n (%) | Dyspepsia, treatment-related AE [1]: 1 (3) n (%) | Fatigue, treatment-related AE [1]: 12 (36) n (%) | Fatigue, treatment-related grade ≥3 AE [1]: 0 (0) n (%) | Headache, treatment-related AE [1]: 3 (9) n (%) | Hypercholesterolemia, treatment-related AE [1]: 4 (12) n (%) | Hyperglycaemia, treatment-related AE [1]: 22 (67) n (%) | Hyperglycaemia, treatment-related grade ≥3 AE [1]: 7 (21) n (%) | Hypophosphatemia, treatment-related AE [1]: 5 (15) n (%) | Hypophosphatemia, treatment-related grade ≥3 AE [1]: 3 (9) n (%) | Lymphopenia, treatment-related grade ≥3 AE [1]: 2 (6) n (%) | Nausea, treatment-related AE [1]: 23 (70) n (%) | Nausea, treatment-related grade ≥3 AE [1]: 2 (6) n (%) | On-study deaths [1]: 2 (6) n (%) | Pruritus generalised, treatment-related AE [1]: 6 (18) n (%) | Pruritus generalised, treatment-related grade ≥3 AE [1]: 1 (3) n (%) | Pruritus, treatment-related AE [1]: 1 (3) n (%) | Rash maculo-papular, treatment-related AE [1]: 1 (3) n (%) | Rash maculo-papular, treatment-related grade ≥3 AE [1]: 0 (0) n (%) | Rash, treatment-related AE [1]: 7 (21) n (%) | Rash, treatment-related grade ≥3 AE [1]: 0 (0) n (%) | Stomatitis (includes oropharyngeal pain and mucosal inflammation), treatment-related AE [1]: 23 (70) n (%) | Stomatitis, treatment-related grade ≥3 AE [1]: 5 (15) n (%) | Thrombocytopenia, treatment-related grade ≥3 AE [1]: 0 (0) n (%) | Vomiting, treatment-related AE [1]: 18 (55) n (%) | Weight decreased, treatment-related AE [1]: 2 (6) n (%) | Acute kidney injury, treatment-related AE [2]: 0 (0) n (%) | Anaemia, treatment-related AE [2]: 0 (0) n (%) | Any AE [2]: 22 (100) n (%) | Any AE resulting in dose modification/interruption [2]: 12 (55) n (%) | Any AE resulting in treatment discontinuation [2]: 6 (27) n (%) | Any SAE [2]: 10 (45) n (%) | Any grade ≥3 AE [2]: 14 (64) n (%) | Any treatment-related AE [2]: 21 (95) n (%) | Any treatment-related SAE [2]: 4 (18) n (%) | Any treatment-related grade ≥3 AE [2]: 8 (36) n (%) | Asthenia, treatment-related AE [2]: 9 (41) n (%) | Asthenia, treatment-related grade ≥3 AE [2]: 3 (14) n (%) | Blood creatinine increased, treatment-related AE [2]: 0 (0) n (%) | Decreased appetite, treatment-related AE [2]: 7 (32) n (%) | Dehydration, treatment-related AE [2]: 0 (0) n (%) | Dehydration, treatment-related grade ≥3 AE [2]: 0 (0) n (%) | Diarrhoea, treatment-related AE [2]: 8 (36) n (%) | Diarrhoea, treatment-related grade ≥3 AE [2]: 0 (0) n (%) | Dry mouth, treatment-related AE [2]: 2 (9) n (%) | Dysgeusia, treatment-related AE [2]: 4 (18) n (%) | Dyspepsia, treatment-related AE [2]: 0 (0) n (%) | Fatigue, treatment-related AE [2]: 7 (32) n (%)
